# Target: T1, Polε (WT holoenzyme) (Saccharomyces cerevisiae, UniProt P21951)
# T1 construct: gene POL2; four-subunit holoenzyme, GST tag on Pol2 cut with PreScission protease, gel filtration, expressed in yeast YRP654; with DNA polymerase epsilon subunit B; DNA polymerase epsilon subunit C; DNA polymerase epsilon subunit D
# Assay: gel-based primer extension, […]-labeled primer
# Type: biochemical
# Settings: 50 μM dCTP running start opposite a run of 5 template G; 5 mM MgCl2, pH 7.5, 30 °C
# T1 sequence (P21951 whole entry): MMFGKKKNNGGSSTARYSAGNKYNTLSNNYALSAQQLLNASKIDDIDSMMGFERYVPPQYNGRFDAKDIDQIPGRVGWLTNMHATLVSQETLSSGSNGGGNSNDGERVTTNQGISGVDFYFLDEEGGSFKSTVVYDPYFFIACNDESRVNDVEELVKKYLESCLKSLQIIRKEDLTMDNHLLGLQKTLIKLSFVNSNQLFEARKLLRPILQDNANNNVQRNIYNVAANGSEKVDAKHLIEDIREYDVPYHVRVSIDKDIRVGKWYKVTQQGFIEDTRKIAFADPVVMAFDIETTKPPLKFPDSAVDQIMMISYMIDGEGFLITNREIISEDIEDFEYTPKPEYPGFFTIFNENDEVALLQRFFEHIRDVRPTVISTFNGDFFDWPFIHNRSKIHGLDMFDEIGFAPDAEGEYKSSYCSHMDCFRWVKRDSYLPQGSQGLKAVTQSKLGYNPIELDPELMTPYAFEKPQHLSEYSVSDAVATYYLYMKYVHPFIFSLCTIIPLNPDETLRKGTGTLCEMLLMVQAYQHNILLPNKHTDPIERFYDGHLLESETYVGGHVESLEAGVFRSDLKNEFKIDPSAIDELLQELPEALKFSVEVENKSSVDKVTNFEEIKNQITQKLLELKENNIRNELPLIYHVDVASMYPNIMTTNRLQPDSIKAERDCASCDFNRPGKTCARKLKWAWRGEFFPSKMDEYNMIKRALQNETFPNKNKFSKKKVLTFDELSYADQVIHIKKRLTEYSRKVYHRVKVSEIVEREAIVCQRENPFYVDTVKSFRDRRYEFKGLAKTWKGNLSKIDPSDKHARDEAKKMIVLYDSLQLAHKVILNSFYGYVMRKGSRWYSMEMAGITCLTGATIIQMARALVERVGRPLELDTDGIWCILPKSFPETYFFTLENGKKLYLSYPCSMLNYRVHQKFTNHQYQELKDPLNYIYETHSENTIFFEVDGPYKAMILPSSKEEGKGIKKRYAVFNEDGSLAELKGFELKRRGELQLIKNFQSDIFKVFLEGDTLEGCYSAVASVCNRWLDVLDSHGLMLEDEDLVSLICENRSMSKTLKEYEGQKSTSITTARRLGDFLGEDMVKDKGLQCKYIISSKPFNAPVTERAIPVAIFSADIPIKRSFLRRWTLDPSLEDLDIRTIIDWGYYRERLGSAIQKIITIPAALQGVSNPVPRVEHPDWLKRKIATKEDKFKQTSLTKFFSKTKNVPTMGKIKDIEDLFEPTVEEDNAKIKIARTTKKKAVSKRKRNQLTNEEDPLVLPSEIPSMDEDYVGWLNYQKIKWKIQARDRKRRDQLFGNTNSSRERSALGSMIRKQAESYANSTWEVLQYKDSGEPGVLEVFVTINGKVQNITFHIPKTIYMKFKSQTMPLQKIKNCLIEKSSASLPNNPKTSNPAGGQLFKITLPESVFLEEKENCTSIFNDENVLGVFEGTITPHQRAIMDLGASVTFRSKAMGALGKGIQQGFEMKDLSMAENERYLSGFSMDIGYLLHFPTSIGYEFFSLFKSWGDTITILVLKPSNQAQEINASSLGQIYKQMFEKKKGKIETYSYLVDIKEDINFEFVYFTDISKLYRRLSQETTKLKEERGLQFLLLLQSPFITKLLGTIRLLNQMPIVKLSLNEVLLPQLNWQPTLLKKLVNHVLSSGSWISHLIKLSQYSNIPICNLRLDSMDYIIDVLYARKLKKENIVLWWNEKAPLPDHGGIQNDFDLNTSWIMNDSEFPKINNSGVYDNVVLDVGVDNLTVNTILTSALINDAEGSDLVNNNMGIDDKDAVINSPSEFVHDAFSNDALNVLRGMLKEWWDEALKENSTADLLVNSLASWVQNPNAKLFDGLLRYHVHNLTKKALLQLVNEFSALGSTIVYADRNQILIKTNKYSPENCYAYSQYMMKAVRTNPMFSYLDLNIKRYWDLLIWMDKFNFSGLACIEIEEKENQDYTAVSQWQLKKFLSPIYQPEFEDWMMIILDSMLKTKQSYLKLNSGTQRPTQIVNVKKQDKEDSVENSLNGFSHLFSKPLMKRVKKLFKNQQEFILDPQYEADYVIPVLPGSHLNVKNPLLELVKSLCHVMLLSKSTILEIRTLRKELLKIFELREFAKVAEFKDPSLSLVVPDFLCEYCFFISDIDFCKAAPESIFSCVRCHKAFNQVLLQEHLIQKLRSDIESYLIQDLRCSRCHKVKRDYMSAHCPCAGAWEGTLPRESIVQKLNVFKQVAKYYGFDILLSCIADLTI
# T1 sequence (P24482 whole entry partner): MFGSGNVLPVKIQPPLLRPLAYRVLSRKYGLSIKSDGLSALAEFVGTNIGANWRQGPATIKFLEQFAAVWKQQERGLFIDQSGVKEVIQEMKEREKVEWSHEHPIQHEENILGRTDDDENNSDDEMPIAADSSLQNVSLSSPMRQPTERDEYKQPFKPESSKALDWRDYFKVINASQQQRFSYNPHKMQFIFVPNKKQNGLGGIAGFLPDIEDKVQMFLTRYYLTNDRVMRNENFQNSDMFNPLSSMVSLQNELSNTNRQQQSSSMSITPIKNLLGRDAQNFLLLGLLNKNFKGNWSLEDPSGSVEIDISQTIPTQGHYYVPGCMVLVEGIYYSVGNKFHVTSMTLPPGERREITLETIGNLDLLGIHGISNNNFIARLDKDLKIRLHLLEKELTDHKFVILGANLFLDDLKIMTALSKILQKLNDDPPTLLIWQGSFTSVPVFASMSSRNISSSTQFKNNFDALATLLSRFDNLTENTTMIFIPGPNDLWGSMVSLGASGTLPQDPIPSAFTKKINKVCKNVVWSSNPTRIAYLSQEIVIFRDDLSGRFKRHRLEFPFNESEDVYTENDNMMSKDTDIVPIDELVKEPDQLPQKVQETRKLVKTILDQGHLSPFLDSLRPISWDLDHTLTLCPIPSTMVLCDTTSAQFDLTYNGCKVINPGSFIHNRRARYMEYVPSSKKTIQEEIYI
# T1 sequence (P27344 whole entry partner): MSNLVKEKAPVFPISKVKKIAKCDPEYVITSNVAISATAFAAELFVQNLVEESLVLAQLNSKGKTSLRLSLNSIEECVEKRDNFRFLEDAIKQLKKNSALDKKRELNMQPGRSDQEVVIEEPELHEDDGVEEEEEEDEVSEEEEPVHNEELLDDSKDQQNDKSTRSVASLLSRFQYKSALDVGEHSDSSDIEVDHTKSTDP
# T1 sequence (Q04603 whole entry partner): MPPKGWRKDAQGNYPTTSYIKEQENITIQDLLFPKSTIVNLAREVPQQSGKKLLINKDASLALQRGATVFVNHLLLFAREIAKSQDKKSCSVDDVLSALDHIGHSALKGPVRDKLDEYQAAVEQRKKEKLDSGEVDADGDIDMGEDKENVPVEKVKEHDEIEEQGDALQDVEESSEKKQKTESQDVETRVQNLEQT
smiles,measurement,value
Nc1ccn([C@H]2C[C@H](O)[C@@H](COP(=O)(O)OP(=O)(O)OP(=O)(O)O)O2)c(=O)n1 [dCTP],"gel-based primer extension, 32P-labeled primer",dCTP was added to initiate DNA synthesis opposite the template G residues
